Our source for the EC50 and IC50 values is patent US20250206738A1, “WRN INHIBITORS” (Nimbus Wadjet, Inc., priority 2023, published 2025).

Where two headings read alike, the source gives them in different places.

The test system of experiment [1] is p21 induction in HCT 116 cells. Nature of the experiment: p21 induction in cells (In-Cell Western, p21/GAPDH ratio). The format is cell-based. The conditions noted are these: 24 h compound incubation, read-out: P21_EC50. An outline of the steps:
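HCT 116 cells treated 24 h at 37° C with 11-point, 2-fold dilutions starting typically at 10 μM, in duplicate. Fixed cells immunostained for p21 and GAPDH; 800/700 nm ratio normalised between DMSO and reference WRN inhibitor controls as percent activation. EC50 from non-linear regression.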

For experiment [2], the target named is T1, human Werner helicase (WRN, Uniprot Q14191, amino acids 517-1235 with L1074F point mutation; WRN-BV08) (Homo sapiens, UniProt Q14191, L1074F).
T1 construct: Uniprot Q14191, amino acids 517-1235 with L1074F point mutation; 8xHis (C, cleaved yes); TEV cleavage site (ENLYFQG) (C, cleaved yes); made in house; host or cells: Sf9 insect cells (baculovirus, pFastBac)
The experiment in a line: WRN (BV08) ADP-Glo assay. The experiment is classed as biochemical. To be noted: WRN-BV08 (aa 517-1235, L1074F); read-out: ADP-Glo_hWRN_IC50. An outline of the steps:
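WRN 517-1235 (L1074F, untagged, Sf9-expressed), 0.15 nM, preincubated with compound 15 min at 25 °C, then 60 min with […] and 0.1 nM DNA duplex in Bicine pH 7.5, 1 mM MgCl2, 1% DMSO. ADP-Glo luminescence; % inhibition vs NSC-617145 control, four-parameter IC50 fit.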
In general terms: ADP-Glo turns the ADP formed in a reaction into a luminescent signal.

T1 sequence (Q14191 with tags, fused parts or gaps L1074F): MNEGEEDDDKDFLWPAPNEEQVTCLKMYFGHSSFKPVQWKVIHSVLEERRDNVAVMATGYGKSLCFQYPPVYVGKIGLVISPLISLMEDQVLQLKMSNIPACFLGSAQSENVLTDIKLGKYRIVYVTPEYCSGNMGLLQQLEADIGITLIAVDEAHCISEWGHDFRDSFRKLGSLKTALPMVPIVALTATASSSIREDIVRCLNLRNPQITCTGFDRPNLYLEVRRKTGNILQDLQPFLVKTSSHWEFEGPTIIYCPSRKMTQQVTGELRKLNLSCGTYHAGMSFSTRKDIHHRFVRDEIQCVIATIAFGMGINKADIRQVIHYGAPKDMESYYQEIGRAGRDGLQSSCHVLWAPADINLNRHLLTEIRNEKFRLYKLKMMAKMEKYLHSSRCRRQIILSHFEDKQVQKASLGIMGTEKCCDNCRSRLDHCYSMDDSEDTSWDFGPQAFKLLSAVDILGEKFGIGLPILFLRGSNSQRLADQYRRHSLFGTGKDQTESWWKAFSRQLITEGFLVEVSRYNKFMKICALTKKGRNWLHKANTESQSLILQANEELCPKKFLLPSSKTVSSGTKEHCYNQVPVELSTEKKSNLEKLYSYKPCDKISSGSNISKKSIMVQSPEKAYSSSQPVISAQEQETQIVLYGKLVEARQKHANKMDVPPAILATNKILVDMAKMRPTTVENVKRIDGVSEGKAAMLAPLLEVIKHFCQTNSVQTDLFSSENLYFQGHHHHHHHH

Consider `CCc1c(C2=CCN(C(=O)c3ncnc(C)c3O)CC2C)c(=O)c2nn(-c3ccnc(OC)c3)nc2n1CC(=O)NC12CC(C(C)C)(C1)C2` (single isomer, unassigned) [I-97], for which the EC50 in experiment [1] (Homo sapiens, HCT-116, 24 h) was ≤ 500 nM. Also, the IC50 in experiment [2] is 5 to 50 nM.
For `CCc1c(N2CCN(C(=O)c3cccc4ncoc34)[C@H]3CC[C@@H]32)c(=O)n2nc(C3=CCOCC3)nc2n1CC(=O)NC12CC(C(C)C)(C1)C2` [I-214, 2-(6-((1S,6S)-5-(benzo[d]oxazole-7-carbonyl)-2,5-diazabicyclo[4.2.0]octan-2-yl)-2-(3,6-dihydro-2H-pyran-4-yl)-5-ethyl-7-oxo-[1,2,4]triazolo[1,5-a]pyrimidin-4(7H)-yl)-N-(3-isopropylbicyclo[1.1.1]pentan-1-yl)acetamide] the same measures were 500 to 2000 nM and 5 to 50 nM.
With `CCc1c(N2CCN(C(=O)c3c(OC)ncc(C4CCOC4)c3O)CC2)c(=O)c2nn(-c3ccnc(OC)c3)nc2n1CC(=O)NC12CC(C(C)C)(C1)C2` (single isomer, unassigned) [I-65], in experiment [1], the EC50 was ≤ 500 nM. Besides, the IC50 in experiment [2] lay within 5 to 50 nM.
With `CCc1c(N2CCN(C(=O)c3ncc4c(c3O)CCO4)CC2)c(=O)n2nc(C3=CCOCC3)nc2n1CC(=O)NC12CC(C(C)(F)F)(C1)C2` [I-7, N-(3-(1,1-difluoroethyl)bicyclo[1.1.1]pentan-1-yl)-2-(2-(3,6-dihydro-2H-pyran-4-yl)-5-ethyl-6-(4-(4-hydroxy-2,3-dihydrofuro[2,3-c]pyridine-5-carbonyl)piperazin-1-yl)-7-oxo-[1,2,4]triazolo[1,5-a]pyrimidin-4(7H)-yl)acetamide], the EC50 in experiment [1] (Homo sapiens, HCT-116, 24 h) fell in the range of 2000 to 5000 nM. Also, the IC50 in experiment [2] lay within 5 to 50 nM.
The corresponding values for `CCc1c(N2CCN(C(=O)c3cnn(C)c3)CC2)c(=O)n2nc(-c3ccnc(OC)c3)nc2n1CC(=O)NC1Cc2ccc(F)cc2C1` (stereo not shown) [I-246, 2-(5-ethyl-2-(2-methoxypyridin-4-yl)-6-(4-(1-methyl-1H-pyrazole-4-carbonyl)piperazin-1-yl)-7-oxo-[1,2,4]triazolo[1,5-a]pyrimidin-4(7H)-yl)-N-(5-fluoro-2,3-dihydro-1H-inden-2-yl)acetamide] are > 5000 nM and 100 to 500 nM.
The corresponding values for `CCc1c(N2CCN(C(=O)c3c(O)ccc4ncoc34)CC2)c(=O)n2nc(-c3ccnc(OC)c3)nc2n1CC(=O)NC1CC2(CCC2)C1` [I-206, 2-(5-ethyl-6-(4-(6-hydroxybenzo[d]oxazole-7-carbonyl)piperazin-1-yl)-2-(2-methoxypyridin-4-yl)-7-oxo-[1,2,4]triazolo[1,5-a]pyrimidin-4(7H)-yl)-N-(spiro[3.3]heptan-2-yl)acetamide] are 500 to 2000 nM and 5 to 50 nM.
Regarding `CCc1c(N2CCN(C(=O)c3ncnc(C)c3O)[C@H]3CC[C@@H]32)c(=O)c2nc(C)c(C)nc2n1CC(=O)NC12CC(C3CCC3)(C1)C2` [I-210, N-(3-cyclobutylbicyclo[1.1.1]pentan-1-yl)-2-(6-ethyl-7-((1S,6S)-5-(5-hydroxy-6-methylpyrimidine-4-carbonyl)-2,5-diazabicyclo[4.2.0]octan-2-yl)-2,3-dimethyl-8-oxopyrido[2,3-b]pyrazin-5(8H)-yl)acetamide], the EC50 in experiment [1] (Homo sapiens, HCT-116, 24 h) lay in the range of 500 to 2000 nM. Besides, the IC50 in experiment [2] lay within 5 to 50 nM.
For the compound `CCc1c(N2CCN(C(=O)c3c(OC)ncc(C)c3O)[C@H]3CC[C@@H]32)c(=O)c2nc(N(C)C)cnc2n1CC(=O)NC12CC(C3CC3)(C1)C2` [I-233, N-(3-cyclopropylbicyclo[1.1.1]pentan-1-yl)-2-(2-(dimethylamino)-6-ethyl-7-((1S,6S)-5-(4-hydroxy-2-methoxy-5-methylnicotinoyl)-2,5-diazabicyclo[4.2.0]octan-2-yl)-8-oxopyrido[2,3-b]pyrazin-5(8H)-yl)acetamide], the EC50 in experiment [1] (Homo sapiens, HCT-116, 24 h) is 500 to 2000 nM. Also, the IC50 in experiment [2] lay in the range of 5 to 50 nM.
